Series [1] deals with Differentiated U937 cells. Briefly: MTT assay: cell viability. The series is classed as cell-based, human. To be noted: 10 μg/ml. The procedure:
The supernatant was replaced with 200 μL of new media and 10 μL of MTT stock solution (5 mg/mL) was added to each well. After incubation for 1 hr the media were removed, 200 μL of DMSO was added to each well and the plates were shaken lightly for 1 hr prior to reading the absorbance at 550 nm. The percentage loss of cell viability was calculated for each well relative to vehicle (0.5% DMSO) treatment. Consequently an apparent increase in cell viability for drug treatment relative to vehicle is tabulated as a negative percentage.

Series [2] concerns LPS-induced TNFα release in d-U937 cells. Briefly: LPS-induced TNFα release in d-U937 cells. The conditions noted are these: Homo sapiens, dU937, 4 h. The series is classed as cell-based. The procedure: U937 cells, a human monocytic cell line, were differentiated to macrophage-type cells by incubation with phorbol myristate acetate (PMA; 100 ng/ml) for 48 to 72 hr. […] The supernatant was collected for determination of TNFα and IL-8 concentrations by sandwich ELISA (Duo-set, R&D systems). […] The relative 50% effective concentration (REC50) was determined from the resultant concentration-response curve. The inhibition of IL-8 production was calculated at each concentration of test compound by comparison with vehicle control.

Series [3] relates to LPS-induced TNFα release in THP-1 cells. Briefly: LPS-induced TNFα release in THP-1 cells. The conditions noted are these: Homo sapiens. It is filed as cell-based. The procedure: THP-1 cells, a human monocytic cell line, were stimulated with 3 μg/mL of LPS (from E. Coli; 0111:B4, Sigma) for 4 hr and the supernatant collected for determination of the TNFα concentration by sandwich ELISA (Duo-set, R&D systems). The inhibition of TNFα production was calculated at each concentration by comparison with vehicle control. The 50% inhibitory concentration (IC50) was determined from the resultant concentration-response curve.

The structures appear in SMILES notation. Like-named read-outs stand apart in the source and are kept apart here.

Consider `Cc1ccc(-n2nc(C(C)(C)C)cc2NC(=O)Nc2ccc(OCCN3CCOCC3)c3ccccc23)cc1` [BIRB796, 1-(3-tert-Butyl-1-p-tolyl-1H-pyrazol-5-yl)-3-(4-(2-morpholinoethoxy)naphthalen-1-yl)urea], for which the “MTT Assay 4 h (cell viability)” value in series [1] (d-U937, 4 hr in 5% FCS) was “− (− = <30% inhibition at 10 μg/ml)”. For the same compound, the “MTT Assay 24 h (cell viability)” value in series [1] (d-U937, 24 h in 10% FCS) was “− (− = <30% inhibition at 10 μg/ml)”. Moreover, the EC50 in series [2] (read-out: LPS/TNFα d-U937 REC50) was found to be 4.8 nM. Further, the IC50 in series [3] (THP-1 cells, 3 μg/mL LPS, 4 hr, read-out: LPS/TNFα THP-1 IC50) is 4.1 nM.

Turning to `CC(=O)Nc1cc(Oc2ccc(NC(=O)Nc3cc(C(C)(C)C)nn3-c3ccc(C)cc3)c3ccccc23)ccn1` [Example 3, N-(4-((4-(3-(3-(tert-Butyl)-1-(p-tolyl)-1H-pyrazol-5-yl)ureido)naphthalen-1-yl)oxy)pyridin-2-yl)acetamide], the EC50 in series [2] (read-out: LPS/TNFα d-U937 REC50 (nM)) came out at 1 nM. Further, the IC50 in series [3] (THP-1, 4 h, read-out: LPS/TNFα THP-1 IC50 (nM)) stood at 1.6 nM.
